# From patent publication US20110230493A1, “1-OXA-8-Azaspiro [4,5] Decabe-8-Carboxamide Compounds as FAAH Inhibitors” (Pfizer Inc., priority 2008, published 2011)
# Marks after values point to notes of the source that are not given here.
# Experiments:
# [1] = target: T1, human FAAH (Homo sapiens, UniProt O00519); experiment: FAAH assay, human FAAH enzyme inactivation (kinact/Ki); assay type: biochemical; settings: oleamide 50 μM, 30° C.; for kinact/KI: pH 7.4, in vitro, read-out: hFAAH kinact/Ki; for hFAAH kinact/Ki: in vitro, pH 7.4
# T1 construct: made in house; host or cells: E. coli
# T1 sequence (O00519 1-579): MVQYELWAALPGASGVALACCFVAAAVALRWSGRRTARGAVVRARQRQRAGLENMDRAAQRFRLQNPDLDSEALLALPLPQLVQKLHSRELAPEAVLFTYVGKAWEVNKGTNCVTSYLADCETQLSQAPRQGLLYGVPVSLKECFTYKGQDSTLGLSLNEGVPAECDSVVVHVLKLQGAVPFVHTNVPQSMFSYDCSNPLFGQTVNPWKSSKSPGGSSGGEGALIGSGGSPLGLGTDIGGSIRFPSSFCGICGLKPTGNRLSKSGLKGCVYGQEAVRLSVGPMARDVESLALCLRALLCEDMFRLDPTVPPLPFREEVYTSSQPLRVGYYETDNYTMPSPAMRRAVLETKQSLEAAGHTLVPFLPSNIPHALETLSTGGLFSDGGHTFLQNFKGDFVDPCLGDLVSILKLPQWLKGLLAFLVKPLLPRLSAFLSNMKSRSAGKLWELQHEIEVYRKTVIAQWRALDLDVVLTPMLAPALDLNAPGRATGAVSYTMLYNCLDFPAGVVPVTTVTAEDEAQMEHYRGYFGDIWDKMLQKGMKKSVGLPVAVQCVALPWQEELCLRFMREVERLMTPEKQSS
# Procedure, shortened: (§1)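 Oleamide hydrolysis by 1-4 nM purified E. coli-expressed FAAH (substrate 50 μM = Km) coupled to GDH/NADH, pH 7.4 phosphate, 7.5% DMSO and EtOH, 30° C; A340 followed 90 min. kobs from mono-exponential fits; kinact/Ki from kobs-versus-concentration slope, multiplied by two.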
# [2] = target: T2, rat FAAH (Rattus norvegicus, UniProt P97612); experiment: FAAH assay, rat FAAH enzyme inactivation (kinact/Ki); assay type: biochemical; settings: oleamide 50 μM, 30° C.; for kinact/KI: pH 7.4, in vitro, read-out: rFAAH kinact/Ki; for rFAAH kinact/Ki: in vitro, pH 7.4
# T2 construct: made in house; host or cells: E. coli
# T2 sequence (P97612 1-579): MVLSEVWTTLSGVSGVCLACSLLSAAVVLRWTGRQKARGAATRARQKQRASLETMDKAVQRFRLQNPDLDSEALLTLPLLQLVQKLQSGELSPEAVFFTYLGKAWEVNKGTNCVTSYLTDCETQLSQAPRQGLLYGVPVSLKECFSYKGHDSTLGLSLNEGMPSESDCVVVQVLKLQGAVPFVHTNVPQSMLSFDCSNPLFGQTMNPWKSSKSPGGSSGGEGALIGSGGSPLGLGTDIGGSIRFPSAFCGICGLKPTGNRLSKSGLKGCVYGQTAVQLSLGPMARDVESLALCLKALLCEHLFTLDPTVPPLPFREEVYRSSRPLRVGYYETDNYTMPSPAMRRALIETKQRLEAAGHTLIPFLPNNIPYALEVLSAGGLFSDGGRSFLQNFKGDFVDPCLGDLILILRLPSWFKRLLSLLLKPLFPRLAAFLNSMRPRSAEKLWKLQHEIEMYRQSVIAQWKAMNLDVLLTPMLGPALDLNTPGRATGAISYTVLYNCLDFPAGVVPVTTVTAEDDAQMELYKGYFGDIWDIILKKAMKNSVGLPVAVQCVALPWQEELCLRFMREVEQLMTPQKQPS
# Procedure, shortened: as §1
# [3] = tested on: Male Sprague-Dawley Rats; experiment: In vivo Complete Freund's Adjuvant (CFA) efficacy assay, inhibition of allodynia; set-up: species or system rat; key: (+) indicates the test compound was determined to be efficacious at 3 mpk, oral dosing; (−) indicates the test compound was determined to not be efficacious at 3 mpk, oral dosing; settings: p < 0.05 vs vehicle group
# Procedure: For additional information on the CFA efficacy assay, see Jayamanne et al., Brit. J. Pharmacol. 2006, 147, 281-288. Experiments were performed on adult Male Sprague-Dawley Rats (200 g-250 g). Inflammation was induced in the left hindpaw of the rat by an intra-plantar injection of 150 uL Complete Freund's Adjuvant (CFA) (SIGMA F5881). The CFA injection immediately induces local inflammation, paw swelling, and pain that persists for at least two weeks post-injection. Baseline paw withdrawal threshold (PWT) was measured to determine the percent inhibition of allodynia using a set of Von Frey Hairs on day 4 post injection as illustrated by the Dixon Up and Down Method (W. J. Dixon, Ann. Rev. Pharmacol. Toxicol. 1980, 20:441-462). […] Following Dose administration PWT threshold was evaluated again at four hours postdose. The Sprague-Dawley rats used in this assay were purchased from Harlan, 8520 Allison Pointe Blvd., Indianapolis, Ind., 46250, U.S.A. Sprague-Dawley rats are an outbred breed of albino rats first produced by the Sprague Dawley farms in Madison, Wis., U.S.A.
# Percent Inhibition of Allodynia was determined by the formula: […]
# ΔPWT measurements were averaged for each treatment group and statistical comparisons between groups were made using ANOVA and Dunnett's two-tailed test. […]
# [4] = 3 mpk, oral dosing, PWT four hours postdose
SMILES,kinact/KI [1],kinact/KI [2],hFAAH kinact/Ki [1],rFAAH kinact/Ki [2],"CFA Efficacy ([3]; 25 mpk, intraperitoneal dosing)","CFA Efficacy [3, 4]"
"O=C(Nc1cccnn1)N1CCC2(CC1)CC(c1cccc(Oc3ccc(C(F)(F)F)cn3)c1)CO2 (racemic) [Example 1, (3RS)—N-pyridazin-3-yl-3-(3-{[5-(trifluoromethyl)pyridin-2-yl]oxy}phenyl)-1-oxa-8-azaspiro[4.5]decane-8-carboxamide]",3130 M⁻¹ s⁻¹,1880 M⁻¹ s⁻¹,–,–,(+)^d,–
"Cc1noc(NC(=O)N2CCC3(CC2)CC(c2cccc(OC(F)(F)F)c2)CO3)c1C (single isomer, unassigned) [Example 33, N-(3,4-dimethylisoxazol-5-yl)-3-[3-(trifluoromethoxy)phenyl]-1-oxa-8-azaspiro[4.5]decane-8-carboxamide]",3420 M⁻¹ s⁻¹,4070 M⁻¹ s⁻¹,–,–,–,(+)
"Cc1noc(NC(=O)N2CCC3(CC2)CC(c2cccc(OC(F)(F)F)c2)CO3)c1C (single isomer, unassigned) [Example 34, N-(3,4-dimethylisoxazol-5-yl)-3-[3-(trifluoromethoxy)phenyl]-1-oxa-8-azaspiro[4.5]decane-8-carboxamide]",–,–,1840 M⁻¹ s⁻¹,2610 M⁻¹ s⁻¹,–,(+)
"Cc1noc(NC(=O)N2CCC3(CC2)CC(c2cccc(Cl)c2)CO3)c1C (single isomer, unassigned) [Example 35, 3-(3-chlorophenol)-N-(3,4-dimethylisoxazol-5-yl)-1-oxa-8-azaspiro[4.5]decane-8-carboxamide]",2390 M⁻¹ s⁻¹,–,–,1560 M⁻¹ s⁻¹,–,(+)
"Cc1noc(NC(=O)N2CCC3(CC2)CC(c2cccc(Cl)c2)CO3)c1C (single isomer, unassigned) [Example 36, 3-(3-chlorophenyl)-N-(3,4-dimethylisoxazol-5-yl)-1-oxa-8-azaspiro[4.5]decane-8-carboxamide]",–,–,2590 M⁻¹ s⁻¹,3830 M⁻¹ s⁻¹,–,(+)
"Cc1noc(NC(=O)N2CCC3(CC2)CC(c2ccc(Cl)c(Cl)c2)CO3)c1C (single isomer, unassigned) [Example 37, 3-(3,4-dichlorophenyl)-N-(3,4-dimethylisoxazol-5-yl)-1-oxa-8-azaspiro[4.5]decane-8-carboxamide]",–,4540 M⁻¹ s⁻¹,4130 M⁻¹ s⁻¹,–,–,(+)
"Cc1noc(NC(=O)N2CCC3(CC2)CC(c2cc(F)cc(Cl)c2)CO3)c1C (single isomer, unassigned) [Example 39, 3-(3-chloro-5-fluorophenyl)-N-(3,4-dimethylisoxazol-5-yl)-1-oxa-8-azaspiro[4.5]decane-8-carboxamide]",1810 M⁻¹ s⁻¹,–,–,1510 M⁻¹ s⁻¹,–,(+)
"Cc1noc(NC(=O)N2CCC3(CC2)CC(c2ccc(OCc4ccccc4Cl)c(Cl)c2)CO3)c1C (single isomer, unassigned) [Example 43, 3-{3-chloro-4-[(2-chlorobenzyl)oxy]phenyl}-N-(3,4-dimethylisoxazol-5-yl)-1-oxa-8-azaspiro[4.5]decane-8-carboxamide]",–,–,3620 M⁻¹ s⁻¹,5870 M⁻¹ s⁻¹,–,(+)
"Cc1noc(NC(=O)N2CCC3(CC2)CC(c2ccc(OCc4ccccc4Cl)c(Cl)c2)CO3)c1C (single isomer, unassigned) [Example 44, 3-{3-chloro-4-[(2-chlorobenzyl)oxy]phenyl}-N-(3,4-dimethylisoxazol-5-yl)-1-oxa-8-azaspiro[4.5]decane-8-carboxamide]",–,–,1330 M⁻¹ s⁻¹,1950 M⁻¹ s⁻¹,–,(+)
"Cc1noc(NC(=O)N2CCC3(CC2)CC(c2ccc(OCc4cccc(Cl)c4)c(Cl)c2)CO3)c1C (single isomer, unassigned) [Example 45, 3-{3-chloro-4-[(3-chlorobenzyl)oxy]phenyl}-N-(3,4-dimethylisoxazol-5-yl)-1-oxa-8-azaspiro[4.5]decane-8-carboxamide]",6240 M⁻¹ s⁻¹,7130 M⁻¹ s⁻¹,–,–,–,(+)
"Cc1noc(NC(=O)N2CCC3(CC2)CC(c2ccc(OCc4cccc(Cl)c4)c(Cl)c2)CO3)c1C (single isomer, unassigned) [Example 46, 3-{3-chloro-4-[(3-chlorobenzyl)oxy]phenyl}-N-(3,4-dimethylisoxazol-5-yl)-1-oxa-8-azaspiro[4.5]decane-8-carboxamide]",–,–,4490 M⁻¹ s⁻¹,6920 M⁻¹ s⁻¹,–,(+)

# The next lines start with results.
kinact/KI [1],kinact/KI [2],hFAAH kinact/Ki [1],rFAAH kinact/Ki [2],SMILES,"CFA Efficacy ([3]; 25 mpk, intraperitoneal dosing)","CFA Efficacy [3, 4]"
1920 M⁻¹ s⁻¹,3030 M⁻¹ s⁻¹,–,–,"CCc1noc(NC(=O)N2CCC3(CC2)CC(c2ccc(Cl)c(Cl)c2)CO3)c1C (single isomer, unassigned) [Example 68, 3-(3,4-dichlorophenyl)-N-(3-ethyl-4-methylisoxazol-5-yl)-1-oxa-8-azaspiro[4.5]decane-8-carboxamide]",–,(+)
4250 M⁻¹ s⁻¹,1500 M⁻¹ s⁻¹,–,–,"Cc1noc(NC(=O)N2CCC3(CC2)CC(c2noc(-c4ccc(OC(F)(F)F)cc4)n2)CO3)c1C (single isomer, unassigned) [Example 72, N-(3,4-dimethylisoxazol-5-yl)-3-{5-[4-(trifluoromethoxy)phenyl]-1,2,4-oxadiazol-3-yl}-1-oxa-8-azaspiro[4.5]decane-8-carboxamide]",–,(+)
–,–,2150 M⁻¹ s⁻¹,1340 M⁻¹ s⁻¹,"Cc1noc(NC(=O)N2CCC3(CC2)CC(c2noc(-c4ccc(OC(F)(F)F)cc4)n2)CO3)c1C (single isomer, unassigned) [Example 73, N-(3,4-dimethylisoxazol-5-yl)-3-{5-[4-(trifluoromethoxy)phenyl]-1,2,4-oxadiazol-3-yl}-1-oxa-8-azaspiro[4.5]decane-8-carboxamide]",–,(+)
3570 M⁻¹ s⁻¹,1610 M⁻¹ s⁻¹,–,–,"Cc1noc(NC(=O)N2CCC3(CC2)CC(c2noc(-c4ccc(C(F)(F)F)cc4)n2)CO3)c1C (single isomer, unassigned) [Example 75, N-(3,4-dimethylisoxazol-5-yl)-3-{5-[4-(trifluoromethyl)phenyl]-1,2,4-oxadiazol-3-yl}-1-oxa-8-azaspiro[4.5]decane-8-carboxamide]",–,(+)
–,–,3120 M⁻¹ s⁻¹,1150 M⁻¹ s⁻¹,"Cc1noc(NC(=O)N2CCC3(CC2)CC(c2noc(-c4ccc(C(F)(F)F)cc4)n2)CO3)c1C (single isomer, unassigned) [Example 76, N-(3,4-dimethylisoxazol-5-yl)-3-{5-[4-(trifluoromethyl)phenyl]-1,2,4-oxadiazol-3-yl}-1-oxa-8-azaspiro[4.5]decane-8-carboxamide]",–,(+)
